Data on one compound can be found in PMC8874984, “Improved Cell-Potent and Selective Peptidomimetic Inhibitors of Protein N-Terminal Methyltransferase 1” (Molecules, 2022).

SMILES strings stand for the structures.

The target in series [1] is T1, NTMT1 (Homo sapiens, UniProt Q9BV86).
T1 construct: made in house
T1 sequence (Q9BV86 1-223): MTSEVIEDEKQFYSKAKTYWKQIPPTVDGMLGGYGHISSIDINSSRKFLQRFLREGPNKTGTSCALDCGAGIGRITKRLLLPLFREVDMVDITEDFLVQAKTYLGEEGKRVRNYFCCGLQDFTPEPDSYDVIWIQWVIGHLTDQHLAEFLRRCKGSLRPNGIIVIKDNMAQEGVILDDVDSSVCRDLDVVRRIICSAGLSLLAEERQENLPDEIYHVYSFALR
Description: SAHH-coupled fluorescence assay of NTMT1 inhibition. The series is classed as biochemical.

The test system of series [2] is cellular α-N-terminal methylation level in HCT116 cells. Description: Cellular N-terminal methylation level, Western blot with anti-me3-SPK antibody. The series is classed as cell-based. The settings on record: Homo sapiens, HCT-116, cellular N-terminal methylation inhibition, n = 2. How it is done:
Next, we investigated the effects of all peptidomimetic inhibitors with GI50 > 100 µM and IC50 < 1 µM on the cellular α-N-terminal methylation level in HCT116 cells (Table 2). Then, we examined the top three cell-potent peptidomimetic inhibitors 1d–f on the dose-response of inhibition of cellular N-terminal methylation levels. […] As the biochemical IC50 value of GD562 was about three-fold higher than DC541, we proposed that the improved cellular inhibition of GD562 may be attributed to its increased permeability with higher cLogP than DC541.
Figure 5 Inhibition of cellular N-terminal methylation by peptidomimetic inhibitors in HCT116 cells. Representative Western blot results of the effects of GD562 (A), GD564 (B), and GD573 (C) on the cellular methylation level. Image quantification was performed using ImageJ software (NIH). […] All experiments were performed in duplicate (n = 2). […]
Cellular N-methylation level.
The gel was transferred to a
system. Image quantification was done using ImageJ software (NIH). All bands were compared
OrganicsTM, AC418900050) dissolved in sterile 1 x PBS. […]

Series [3] in a line: in vitro. Particulars: human.
Description: Cell viability assay. HCT116 cells were seeded as 5,000 cells/well on 96-well plates in the
presence of 1x PBS or DC541 at different concentrations for 24, 48, or 72 hours. Cell viability
was assessed using 0.2 mg/ml resazurin solutions prepared from resazurin sodium salt (Acros
OrganicsTM, AC418900050) dissolved in sterile 1 x PBS. Then, the cells were incubated with
10 µl resazurin solution (10% of cell culture volume) for four hours at 37 °C. The fluorescence
Cell viability was calculated as 100% × (fluorescence of treated cells – fluorescence of
background controls) / (fluorescence of 1x PBS controls – fluorescence of background
Series [4] in a line: Parallel Artificial Membrane Permeability Assay (PAMPA).

As to `NCCCCC(NC(=O)C1CCCN1C(=O)Cc1cccc2ccccc12)C(=O)NCCCc1ccccc1` (stereo not drawn) [Compound 1e], the IC50 is 0.65 ± 0.01 µM in series [1] and roughly 100 µM in series [2]. The “Expt. ΔGbind ± σ” value in series [1] (estimated from the IC50 values in Table 1) is recorded as -8.44 ± 0.01 kcal/mol. The “IC50/IC50 (DC541)” value in series [1] (ratio of NTMT1 IC50 to that of DC541) is 1.9. The GI50 in series [3] was greater than 300 µM. The same compound yielded a Papp in series [4] of 0.17 ± 0.08 ×10⁻⁶ cm/s.
